Reference: patent US6746673B2, “Pharmaceutical compositions containing anti-Fas antibody” (Sankyo Company, Limited, priority 1999, dated 2004)

Tested on: Human lymphocyte cell stock HPB-ALL
Assay: XTT cell viability assay of apoptosis induction in HPB-ALL cells
Assay type: cell-based
Settings: only methotrexate added, no anti-Fas antibody, FIG. 3
Method: Human lymphocyte cell stock HPB-ALL (cf. Morikawa, S., et al. (1978) Int. J. Cancer 21, 166-170) was cultured in RPMI 1640 medium containing 10% FCS (manufactured by Gibco B.R.L. Corporation) at 37° C., in the presence of 5% carbon dioxide gas for three days, and 50 μl of the culture (2.5×10^5 cells/50 μl) were dispensed into each well of a 96-well microplate (manufactured by Sumitomo Bakelite Co., Ltd.). Then, 50 μl of the RPMI medium containing methotrexate (manufactured by Sigma Chemical Company), and an anti-Fas antibody (CH11 or HFE7A, 0.001 mg/ml solution was serially diluted by three times) were added to each well, and was cultured at 37° C.
The cells in the plate to which CH11 was added as an anti-Fas antibody were kept to be cultured at 37° C. overnight. […] The plate was then incubated for 3 hours at 37° C., and the absorbance at 450 nm of each well was measured, to calculate cell viability, using the reducing power of the mitochondria as the index.
The viability of the cells in each well was calculated according to the following equation: […]
wherein “a” is the absorbance of a test well, “b” is the absorbance of a well with no cells and c is the absorbance of a well with no antibody added.

## CN(Cc1cnc2nc(N)nc(N)c2n1)c1ccc(C(=O)N[C@@H](CCC(=O)O)C(=O)O)cc1 [methotrexate, Methotrexate]
  viability of the cells: almost no change
